Experimental data taken from patent US20220160842A1, “METHOD OF TREATING INFECTIVE ENDOCARDITIS” (priority 2019, published 2022).
Converted amounts (≈) assume the structure as drawn. Where two headings read alike, the source gives them in different places. Marks after values point to notes of the source that are not given here.

Tests used:
[1] = test system: S. aureus (MRSA); assay: MIC by broth microdilution; assay type: cell-based, Staphylococcus aureus; conditions: S. aureus (MRSA), N=74
Method: (§1) Minimal inhibitory concentrations (MICs) of exebacase against staphylococci were determined by broth microdilution (BMD) using a nonstandard antimicrobial susceptibility testing (AST) medium comprised of cation-adjusted Mueller Hinton broth (caMHB) supplemented with horse serum (Sigma Aldrich) and dithiothreitol (DTT; Sigma Aldrich) to final concentrations of 25% and 0.5 mM, respectively. This medium, referred to as caMHB-HSD, is approved for use in exebacase AST by the Clinical and Laboratory Standards Institute (CLSI) (CLSI. 2017, Jan. 16-17. AST Subcommittee Working Group Meetings and Plenary. AST Meeting Files & Resources, clsi.org/education/microbiology/ast/ast-meeting-files-resources/. Additional supplementation with 2.5% lysed red blood cells (Remel™, ThermoFisher) was included for analyses of streptococcal isolates, as recommended by CLSI. See CLSI, 2015. Methods for Dilution Antimicrobial Susceptibility Tests for Bacteria That Grow Aerobically, 10th Edition. Clinical and Laboratory Standards Institute, Wayne, Pa.
(§2) Daptomycin (Sigma Aldrich) and vancomycin hydrochloride (Sigma Aldrich) were tested following the reference BMD method for each. See CLSI. 2015. Methods for Dilution Antimicrobial Susceptibility Tests for Bacteria That Grow Aerobically, 10th Edition. Clinical and Laboratory Standards Institute, Wayne, Pa.

[2] = test system: S. aureus (MSSA); assay: MIC by broth microdilution; assay type: cell-based, Staphylococcus aureus; conditions: S. aureus (MSSA), N=73
Method: as §1, §2

[3] = test system: S. haemolyticus; assay: MIC by broth microdilution; assay type: cell-based, Staphylococcus haemolyticus; conditions: S. haemolyticus, N=36
Method: as §1, §2

[4] = test system: S. capitis; assay: MIC by broth microdilution; assay type: cell-based, Staphylococcus capitis; conditions: S. capitis, N=13
Method: as §1, §2

[5] = test system: S. warneri; assay: MIC by broth microdilution; assay type: cell-based, Staphylococcus warneri; conditions: S. warneri, N=23
Method: as §1, §2

[6] = test system: S. anginosus; assay: MIC by broth microdilution; assay type: cell-based, Streptococcus anginosus; conditions: S. anginosus (viridans), N=10
Method: as §1, §2

[7] = test system: S. gordonii; assay: MIC by broth microdilution; assay type: cell-based, Streptococcus gordonii; conditions: S. gordonii (viridans), N=11
Method: as §1, §2

[8] = test system: S. mutans; assay: MIC by broth microdilution; assay type: cell-based, Streptococcus mutans; conditions: S. mutans (viridans), N=22
Method: as §1, §2

[9] = test system: S. oralis; assay: MIC by broth microdilution; assay type: cell-based, Streptococcus oralis; conditions: S. oralis (viridans), N=15
Method: as §1, §2

[10] = test system: S. sanguinis; assay: MIC by broth microdilution; assay type: cell-based, Streptococcus sanguinis; conditions: S. sanguinis (viridans), N=15
Method: as §1, §2

[11] = test system: S. gallolyticus; assay: MIC by broth microdilution; assay type: cell-based, Streptococcus gallolyticus; conditions: S. gallolyticus (bovis), N=19
Method: as §1, §2

[12] = test system: S. agalactiae; assay: MIC by broth microdilution; assay type: cell-based, Streptococcus agalactiae; conditions: S. agalactiae (group B), N=97
Method: as §1, §2

[13] = test system: S. dysgalactiae; assay: MIC by broth microdilution; assay type: cell-based, Streptococcus dysgalactiae; conditions: S. dysgalactiae (group G), N=22
Method: as §1, §2

[14] = test system: E. faecalis; assay: MIC by broth microdilution; assay type: cell-based, Enterococcus faecalis; conditions: E. faecalis (formerly group D), N=18
Method: as §1, §2

[15] = test system: MRSA strain MW2; assay: Left-sided catheter-induced IE model due to MRSA, CF-301 dose strategies plus DAP (Example 4); assay type: in vivo, rabbits
Method: Briefly, female New Zealand White rabbits (Harlan Laboratories; 2.3 to 2.5 kg body weight) underwent transcarotid-transaortic valve catheterization, and IE was induced by IV infection of ˜1-2×10^5 cfu of MW2 at 48 hours (h) after catheterization. […] See also FIG. 4.
On day 5, animals were sacrificed, and target tissues (cardiac vegetations, kidney and spleen) were removed and quantitatively cultured. Tissue MRSA counts are given as the mean log10 CFU/g of tissue±SD).
A two-tailed Student's t test was used to analyze the tissue MRSA counts between different groups. P values <0.05 were considered significant. No adjustment was made for all the P values reported in this study.

[16] = test system: MRSA strain MW2 (CA-MRSA; USA400); conditions: cited from earlier work
[17] = Staphylococcus aureus, read-out: MIC50
[18] = Staphylococcus aureus, read-out: MIC90
[19] = all CF-301 doses given in addition to DAP

## CCCCCCCCCC(=O)N[C@@H](Cc1c[nH]c2ccccc12)C(=O)N[C@H](CC(N)=O)C(=O)N[C@@H](CC(=O)O)C(=O)N[C@@H]1C(=O)NCC(=O)N[C@@H](CCCN)C(=O)N[C@@H](CC(=O)O)C(=O)N[C@H](C)C(=O)N[C@@H](CC(=O)O)C(=O)NCC(=O)N[C@H](CO)C(=O)N[C@@H]([C@H](C)CC(=O)O)C(=O)N[C@@H](CC(=O)c2ccccc2N)C(=O)O[C@@H]1C [DAP, Daptomycin]
[1]
  MIC Range: 0.125 to 1 µg/mL
[1]; [17]
  MIC50: 0.25 µg/mL (≈ 0.154 µM)
[1]; [18]
  MIC90: 0.5 µg/mL (≈ 0.309 µM)
[2]
  MIC Range: 0.125 to 0.5 µg/mL
[2]; [17]
  MIC50: 0.25 µg/mL (≈ 0.154 µM)
[2]; [18]
  MIC90: 0.25 µg/mL (≈ 0.154 µM)
[3]
  MIC Range: 0.25 to 2 µg/mL
[3]; Staphylococcus haemolyticus, read-out: MIC50
  MIC50: 0.5 µg/mL (≈ 0.309 µM)
[3]; Staphylococcus haemolyticus, read-out: MIC90
  MIC90: 1 µg/mL (≈ 0.617 µM)
[4]
  MIC Range: 0.25 to 1 µg/mL
[4]; Staphylococcus capitis, read-out: MIC50
  MIC50: 0.5 µg/mL (≈ 0.309 µM)
[4]; Staphylococcus capitis, read-out: MIC90
  MIC90: 1 µg/mL (≈ 0.617 µM)
[5]
  MIC Range: 0.25 to 2 µg/mL
[5]; Staphylococcus warneri, read-out: MIC50
  MIC50: 0.5 µg/mL (≈ 0.309 µM)
[5]; Staphylococcus warneri, read-out: MIC90
  MIC90: 2 µg/mL (≈ 1.23 µM)
[6]
  MIC Range: 0.25 to 0.5 µg/mL
[6]; Streptococcus anginosus, read-out: MIC50
  MIC50: 0.5 µg/mL (≈ 0.309 µM)
[6]; Streptococcus anginosus, read-out: MIC90
  MIC90: 0.5 µg/mL (≈ 0.309 µM)
[7]
  MIC Range: 0.25 to 1 µg/mL
[7]; Streptococcus gordonii, read-out: MIC50
  MIC50: 0.5 µg/mL (≈ 0.309 µM)
[7]; Streptococcus gordonii, read-out: MIC90
  MIC90: 0.5 µg/mL (≈ 0.309 µM)
[8]
  MIC Range: 0.25 to 8 µg/mL
[8]; Streptococcus mutans, read-out: MIC50
  MIC50: 0.5 µg/mL (≈ 0.309 µM)
[8]; Streptococcus mutans, read-out: MIC90
  MIC90: 1 µg/mL (≈ 0.617 µM)
[9]
  MIC Range: 0.25 to 1 µg/mL
[9]; Streptococcus oralis, read-out: MIC50
  MIC50: 0.5 µg/mL (≈ 0.309 µM)
[9]; Streptococcus oralis, read-out: MIC90
  MIC90: 0.5 µg/mL (≈ 0.309 µM)
[10]
  MIC Range: 0.06 to 1 µg/mL
[10]; Streptococcus sanguinis, read-out: MIC50
  MIC50: 0.25 µg/mL (≈ 0.154 µM)
[10]; Streptococcus sanguinis, read-out: MIC90
  MIC90: 1 µg/mL (≈ 0.617 µM)
[11]
  MIC Range: 0.06 to 0.5 µg/mL
[11]; Streptococcus gallolyticus, read-out: MIC50
  MIC50: 0.125 µg/mL (≈ 0.0771 µM)
[11]; Streptococcus gallolyticus, read-out: MIC90
  MIC90: 0.25 µg/mL (≈ 0.154 µM)
[12]
  MIC Range: 0.125 to 0.25 µg/mL
[12]; Streptococcus agalactiae, read-out: MIC50
  MIC50: 0.125 µg/mL (≈ 0.0771 µM)
[12]; Streptococcus agalactiae, read-out: MIC90
  MIC90: 0.25 µg/mL (≈ 0.154 µM)
[13]
  MIC Range: 0.06 to 0.5 µg/mL
[13]; Streptococcus dysgalactiae, read-out: MIC50
  MIC50: 0.125 µg/mL (≈ 0.0771 µM)
[13]; Streptococcus dysgalactiae, read-out: MIC90
  MIC90: 0.25 µg/mL (≈ 0.154 µM)
[14]
  MIC Range: 0.25 to 0.5 µg/mL
[14]; Enterococcus faecalis, read-out: MIC50
  MIC50: 0.5 µg/mL (≈ 0.309 µM)
[14]; Enterococcus faecalis, read-out: MIC90
  MIC90: 0.5 µg/mL (≈ 0.309 µM)
[15]; DAP alone 4 mg/kg QD
  MRSA density, Mean Log10 CFU/g tissue ± SD, Kidneys: 4.62 ± 1.16^a Log10 CFU/g tissue
  MRSA density, Mean Log10 CFU/g tissue ± SD, Spleen: 4.04 ± 0.87^a Log10 CFU/g tissue
[15]; DAP alone 4 mg/kg iv QD x 4 day
  reduction in MRSA densities in all three target tissues vs vehicle controls: 2-3 log10 cfu/g
[16]
  MIC: 0.5 µg/mL (≈ 0.309 µM)

B1: CF-301: anti-staphylococcal lysin encoded within a prophage of the Streptococcus suis genome, SEQ ID NO: 2 with or without initial methionine (protein, listed as Streptococcus suis)
chain: MTTVNEALNNVRAQVGSGVSVGNGECYALASWYERMISPDATVGLGAGVGWVSGAIGDTISAKNIGSSYNWQANGWTVSTSGPFKAGQIVTLGATPGNPYGHVVIVEAVDGDRLTILEQNYGGKRYPVRNYYSAASYRQQVVHYITPPGTVAQSAPNLAGSRSYRETGTMTVTVDALNVRRAPNTSGEIVAVYKRGESFDYDTVIIDVNGYVWVSYIGGSGKRNYVATGATKDGKRFGNAWGTFK
[1]
  MIC50: 0.5 µg/mL
  MIC90: 1 µg/mL
  MIC Range: 0.5 to 2 µg/mL
[2]
  MIC50: 0.5 µg/mL
  MIC90: 0.5 µg/mL
  MIC Range: 0.25 to 1 µg/mL
[3]
  MIC50: 0.5 µg/mL
  MIC90: 1 µg/mL
  MIC Range: 0.25 to 2 µg/mL
[4]
  MIC50: 1 µg/mL
  MIC90: 2 µg/mL
  MIC Range: 0.25 to 4 µg/mL
[5]
  MIC50: 0.5 µg/mL
  MIC90: 1 µg/mL
  MIC Range: 0.06 to 1 µg/mL
[6]
  MIC50: 32 µg/mL
  MIC90: 64 µg/mL
  MIC Range: 1 to 64 µg/mL
[7]
  MIC50: 4 µg/mL
  MIC90: 8 µg/mL
  MIC Range: 0.5 to 8 µg/mL
[8]
  MIC50: 32 µg/mL
  MIC90: 64 µg/mL
[9]
  MIC50: 4 µg/mL
  MIC90: 64 µg/mL
  MIC Range: 0.5 to 64 µg/mL
[10]
  MIC50: 4 µg/mL
  MIC90: 16 µg/mL
  MIC Range: 2 to 32 µg/mL
[11]
  MIC50: 64 µg/mL
  MIC90: >512 µg/mL
[12]
  MIC50: 1 µg/mL
  MIC90: 2 µg/mL
  MIC Range: 0.25 to 4 µg/mL
[13]
  MIC50: 1 µg/mL
  MIC90: 2 µg/mL
  MIC Range: 1 to 2 µg/mL
[14]
  MIC50: 16 µg/mL
  MIC90: 64 µg/mL
  MIC Range: 1 to 256 µg/mL
[15]; [19]
  further reduction of MRSA densities in all target tissues vs DAP alone: about 3 log10 cfu/g
  reduction of MRSA densities in all target tissues vs vehicle control groups: about 6 log10 cfu/g
[16]
  MIC: 1.0 µg/mL
